Literature values as cited in patent publication US8318788B2, “Layered pharmaceutical formulations” (priority 2006, dated 2012).
Values belong to the molecule of their own block, whether it stands above or below them.

Key:
[1] = patients presenting primary obesity
[2] = test system: carbonic anhydrase

bioavailability (in vivo): approximately 72%
physiological half life (in vivo): about 24 hours
plasma protein binding (mostly albumin): highly bound to plasma proteins
SMILES: CNCCC(Oc1ccc(C(F)(F)F)cc1)c1ccccc1 (stereo not drawn) [Fluoxetine, N-methyl-3-phenyl-3-[4-(trifluoromethyl)phenoxy]-propan-1-amine]

SMILES: Cc1cc2c(s1)Nc1ccccc1N=C2N1CCN(C)CC1 [Olanzapine, 2-methyl-4-(4-methyl-1-piperazinyl)-10H-thieno[2,3-b][1,5]benzodiazepine]
effect of food on bioavailability (in vivo): not affected by food
first pass metabolism (in vivo): extensive first pass metabolism
kinetics (in vivo): linear kinetics
time until steady state plasma concentrations are achieved (in vivo): about a week

inhibitory effect on carbonic anhydrase [2]: weak inhibitory effect
SMILES: NS(=O)(=O)Cc1noc2ccccc12 [Zonisamide]
weight loss [1]: significant weight loss
